According to ChEMBL document CHEMBL1145232, “Synthesis of the naphthalene-derived inhibitors against Cdc25A dual-specificity protein phosphatase and their biological activity” (Bioorg Med Chem Lett, 2005):
Values after ≈ are worked out from the molar mass of the structure shown.

Assay: In vitro inhibitory concentration against Cdc25A protein phosphatase

Row | SMILES | IC50
1 | COC1=CC(=O)c2c(cc(C/C=C/CO)c(C(O)c3ccccc3)c2OC)C1=O (stereo unspecified) | 2.74 µg/mL (≈ 6.95 µM)
2 | CCCCC(O)c1c(C/C=C/CO)cc2c(OC)c(OC)cc(OCc3ccccc3)c2c1OC (stereo unspecified) | > 10 µg/mL
3 | CCCCC(O)c1c(C/C=C/CO)cc2c(c1O)C(O)=C/C(=N\C)C2=O (stereo unspecified) | > 10 µg/mL
4 | CCCCC(O)c1c(C/C=C/CO)cc2c(c1OC)C(=O)C=C(OC)C2=O (stereo unspecified) | 1.77 µg/mL (≈ 4.73 µM)
5 | CCCCC(O)c1c(C/C=C/CO)cc2c(c1O)C(=O)C=C(OC)C2=O (stereo unspecified) | 1.51 µg/mL (≈ 4.19 µM)
6 | CCCCCC(O)c1c(C/C=C/CO)cc2c(c1OC)C(=O)C=C(OC)C2=O (stereo unspecified) | 1.6 µg/mL (≈ 4.12 µM)
7 | COc1cc(OCc2ccccc2)c2c(OC)cc(C[C@@H]3CCOC(C)(C)O3)cc2c1OC | > 10 µg/mL

Now from value to compound:

Row | IC50 | SMILES
8 | > 10 µg/mL | CCCCCC(O)c1c(C/C=C/CO)cc2c(c1OC)C(=O)C=C(NC)C2=O (stereo unspecified)
9 | > 10 µg/mL | CNC1=CC(=O)c2c(OC)cc(C[C@@H]3CCOC(C)(C)O3)cc2C1=O
10 | > 10 µg/mL | CCC(O)c1c(C/C=C/CO)cc2c(c1OC)C(=O)C=C(NC)C2=O (stereo unspecified)
11 | 1.86 µg/mL (≈ 5.37 µM) | CCC(O)c1c(C/C=C/CO)cc2c(c1OC)C(=O)C=C(OC)C2=O (stereo unspecified)
12 | > 10 µg/mL | CNC1=CC(=O)c2c(OC)cc(COC)cc2C1=O
13 | 0.4 µg/mL (≈ 1.15 µM) | COC1=CC(=O)c2c(OC)cc(C[C@@H]3CCOC(C)(C)O3)cc2C1=O
14 | 0.4 µg/mL (≈ 1.61 µM) | COC1=CC(=O)c2c(OC)cc(OC)cc2C1=O
15 | > 10 µg/mL | CNC1=CC(=O)c2c(cc(C/C=C/CO)c(C(O)c3ccccc3)c2OC)C1=O (stereo unspecified)
16 | >= 10 ug ml-1 | CCCC[C@H]1O[C@@H](CC(=O)O)Cc2cc3c(c(O)c21)C(=O)C=C(NC)C3=O (racemic)
